Measured values as given in PubChem BioAssay (NCI).
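Growth conditions: 96-well plates. Treatment: test compound, 48 hours, 5 concentrations. Analysis: linear interpolation between bracketing concentrations; unreached endpoints set to highest concentration. At the GI50, growth is halved. At the TGI there is no net growth.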

Assays:
Assay in all cases: NCI anticancer screen, dose series, 48 h
RPMI-8226 leukemia = system: RPMI-8226 leukemia
EKVX NSCLC = system: EKVX NSCLC
M14 melanoma = system: M14 melanoma
OVCAR-8 ovarian = system: OVCAR-8 ovarian
SNB-75 CNS = system: SNB-75 CNS
SF-268 CNS = system: SF-268 CNS
RXF 393 renal = system: RXF 393 renal
SK-MEL-5 melanoma = system: SK-MEL-5 melanoma
NCI-H23 lung = system: NCI-H23 lung
MDA-MB-435 = system: MDA-MB-435

SMILES	TGI (RPMI-8226 leukemia) [µM]	TGI (EKVX NSCLC) [µM]	TGI (M14 melanoma) [µM]	TGI (OVCAR-8 ovarian) [µM]	TGI (SNB-75 CNS) [µM]	TGI (SF-268 CNS) [µM]	TGI (RXF 393 renal) [µM]	TGI (SK-MEL-5 melanoma) [µM]	TGI (NCI-H23 lung) [µM]	TGI (MDA-MB-435) [µM]	GI50 (RPMI-8226 leukemia) [µM]	GI50 (MDA-MB-435) [nM]	GI50 (M14 melanoma) [µM]	GI50 (OVCAR-8 ovarian) [µM]	GI50 (SNB-75 CNS) [µM]	GI50 (SF-268 CNS) [µM]	GI50 (RXF 393 renal) [µM]	GI50 (SK-MEL-5 melanoma) [µM]	GI50 (NCI-H23 lung) [µM]	GI50 (EKVX NSCLC) [nM]
C=CCc1ccc(Oc2cc(CC=C)c3c(c2O)O[C@@H](CO)[C@H]3c2ccc(O)c(-c3cc(CC=C)ccc3O)c2)cc1	> 100	> 100	> 100	> 100	> 100	> 100	> 100	> 100	> 100											
CCN(CC)c1ccc(N=Nc2ccc(-c3nc4ccc[n+](C)c4s3)cc2)cc1	25.7	58.8	37.6	65.3	27.5	48.9		33.9	24.9											
O=C1/C(=C/c2cccc([N+](=O)[O-])c2)COc2ccc(Br)cc21	6.57	> 100		> 100	> 100	> 100	> 100	> 100	> 100											
O=C1CC2c3ccccc3CCC2c2ccccc21 (stereo unspecified)	> 100	15.3	33.4	53.9	> 100	> 100		31	69	98.6										
CSC(C1c2ccccc2N(c2ccc(C)cc2)c2[nH]c(=O)n(C)c(=O)c21)S(=O)(=O)c1ccc(C)cc1 (stereo unspecified)	> 100	> 100	> 100	> 100	> 100	> 100		> 100	> 100											
O=C(c1ccccc1)C1OC12C(=O)Nc1ccccc12 (stereo unspecified)	84.9	> 100	63	> 100	42.2	> 100	54.7	47.3	89.4											
O=C1NC2OC(C(O)CO)C(O)C2O1 (stereo unspecified)		> 100	> 100	> 100	> 100	> 100		> 100	> 100											
N#CC1CC2(C1)OCCS2 (stereo unspecified)	> 100	> 100	> 100	> 100	> 100	> 100	> 100		> 100											
CC(C)C[C@H](NC(=O)/C=C/Cn1ccc2ccccc2c1=O)B(O)O	> 100		10.1	55.5	16.3	51.5	5.15	6.16	> 100	2.96	0.845	1480	2.92	14.2	3.2	4.98	2.13	2.36	5.87	
NC(=O)NCc1c(C(N)=O)ncn1Cc1ccccc1	> 100	> 100	> 100	> 100	> 100		> 100	> 100	> 100											
C1C[OH+]CC[OH+]CC[OH+]CC[OH+]CC[OH+]1.[Cl-].[V]	> 100		> 100	> 100	41.2	> 100	36.9	26.6	> 100		> 100		45.3	> 100	16.2	73.2	18.1	7.48	76.9	
O=C1OC2CCCC[C@@H]2C2C[C@]34CCCCC3[C@@H](C(=O)O4)C12 (stereo partly specified)		> 100	> 100	> 100	> 100	> 100	> 100	> 100	> 100											
Cc1c(C(=O)/C=C/c2ccccc2)[n+](=O)c2ccccc2n1[O-]	45.9	29.5	29.1	28.7	64.7	40.1	20.9		29.5											
COc1ccc2nc(NC(=O)C(=O)C(C#N)c3ccc([N+](=O)[O-])cc3)sc2c1 (stereo unspecified)	> 100	> 100	> 100	> 100	> 100	> 100	> 100	> 100	> 100											
O=C(/C=C\c1ccc(NCc2ccc(C(=O)O)cc2)cc1)CCl	35.3		35.3	19.9	26.3	24.7		34.5	31	31.9	9.07	15800	15	6.98	13.4	10.6		17.2	15.5	
O=C1CSC(/C(=N/Nc2ccccc2)c2nc3ccccc3[nH]2)=N1		> 100	> 100	> 100	97.6	> 100		> 100	> 100											
Nc1ccc(-c2nc3ccc(Cc4ccc5nc(-c6ccc(N)cc6)[nH]c5c4)cc3[nH]2)cc1	> 100			6.58	28.9	26.9	42.9	34.1	22.3	3.67	25.7	1450		2.48	12.3	4.23	15.7	5.22	3.83	
COc1cc(NC(C)CCCN)c2nccc(C)c2c1 (stereo unspecified)	60.7	> 100	33.7		37.1	> 100		82.8	> 100	30.4										
N#Cc1cccnc1Cl	> 100	> 100	> 100	> 100	> 100	> 100	> 100	> 100	> 100											
COc1cc(/C=C/c2cc(/C=C/c3ccc(O)c(OC)c3)n(C(=O)Nc3ccc(C)cc3C)n2)ccc1O	1.74	5.76		2.36			0.775	1.26	1.25		0.352			0.562			0.262	0.327	0.275	995
CN(CCC#N)c1ccc(/C=C(\C#N)c2ccc(Br)cc2)cc1				> 100		> 100	> 100		> 100	> 100		1970		> 100		> 100	3.37		> 100	
